The record followed here is patent US20050256034A1, “Dioxolane analogs for improved inter-cellular delivery” (priority 2000, published 2005).

The test is described as follows: 3H-Thymidine Incorporation Assay (24 hr drug, wash, another 48 hr; 72 hr assay). Type of test: cell-based. As to conditions: for Factor (Resistance Factor = Ratio of dCK- on Wild-type CCRF-CEM) / Resistance Factor = Ratio of dCK- on Wild-type CCRF-CEM: ratio of IC50 CEM/dCK- to IC50 CCRF-CEM; for Factor (Resistance Factor = Ratio of dCK- on Wild-type CCRF-CEM): 24 h exposure.

The mark [1] stands for this setting: CCRF-CEM, read-out: IC50 (3H-TdR incorporation at 72 hr) CCRF-CEM 24 h, CCRF-CEM T-cell leukemia, 24 hr exposure to drug, wash, another 48 hr.
[2] abbreviates: CCRF-CEM, read-out: IC50 (3H-TdR incorporation at 72 hr) CEM/dCK- 24 h, CEM/dCK- (CCRF-CEM deoxycytidine kinase-deficient), 24 hr exposure to drug, wash, another 48 hr.
[3] abbreviates: MCF7, read-out: IC50 (3H-TdR incorporation at 72 hr) MCF-7 24 h, MCF-7 human breast carcinoma, 24 hr exposure to drug, wash, another 48 hr.
The mark [4] stands for this setting: NCI-H460, read-out: IC50 (3H-TdR incorporation at 72 hr) H-460 24 h, H-460 human lung carcinoma, 24 hr exposure to drug, wash, another 48 hr.
The mark [5] stands for this setting: SF-268, read-out: IC50 (3H-TdR incorporation at 72 hr) SF-268 24 h, SF-268 human central nervous system tumor, 24 hr exposure to drug, wash, another 48 hr.
Setting [6] is: read-out: IC50 (3H-TdR incorporation at 72 hr) H-460 24 h, H-460 human lung carcinoma, 24 hr exposure to drug, wash, another 48 hr.
Setting [7] is: read-out: IC50 (3H-TdR incorporation at 72 hr) MCF-7 24 h, MCF-7 human breast carcinoma, 24 hr exposure to drug, wash, another 48 hr.

“And” between values parts separate entries of the source, which are not always exact repeats. Equal entries are not always repeated. Where two headings read alike, the source gives them in different places.

As for `CC(=O)OCC1OC2OC(C)(OC[C@H]3OC[C@@H](n4ccc(NC(=O)OCc5ccccc5)nc4=O)O3)OC2C(OC(C)=O)C1OC(C)=O` (some centres unmarked) [Compound 148, Acetic acid 6-acetoxy-5-acetoxy-methyl-2-[4-(4-benzyl-oxycarbonylamino-2-ox-o-2H-pyrimidin-1-yl)-[1,3]di-oxolan-2-ylmeth-oxy]-2-methyl-tetra-hydro-[1,3]di-oxolo[4,5-b]py-ran-7-yl ester], the “Factor (Resistance Factor = Ratio of dCK- on Wild-type CCRF-CEM)” value amounted to 4.

On to `CC(C(=O)OC[C@H]1OC[C@@H](n2ccc(N)nc2=O)O1)C(c1ccccc1)c1ccccc1` (stereo partly drawn) [Compound 157, (2S,4S)-(3″-DIPHENYL-2″-METHYL- PROPIOXYMETHYL)-4-CYTO- SIN-1′-YL-1,3-DI- OXOLANE], for which the Factor (Resistance Factor = Ratio of dCK- on Wild-type CCRF-CEM) was more than 8330.

For `CCOC(OCC)(OC[C@H]1OC[C@@H](n2ccc(N)nc2=O)O1)c1ccccc1` [Compound 170, 4-AMINO-1-[2-(DIETHOXY-PHE- NYL-METHOXYMETHYL)-[1,3]DI- OXOLAN-4-YL]-1H-PYRI- MIDIN-2-ONE], the “Resistance Factor = Ratio of dCK- on Wild-type CCRF-CEM” value was more than 476. Further, the IC50 under setting [1] stood at 0.21 µM. For the same compound, the IC50 under setting [2] is more than 100 µM. The IC50 under setting [3] was 0.49 µM. Moreover, the IC50 under setting [4] is 0.63 µM. The IC50 under setting [5] came to 1 µM.

As for `COC(OC)(OC)OC[C@H]1OC[C@@H](n2ccc(N)nc2=O)O1` [Compound 177, 4-AMINO-1-(2-TRI- METHOXYMETHOXYMETHYL-[1,3]DI- OXOLAN-4-YL)-1H-PYRI- MIDIN-2-ONE], the Resistance Factor = Ratio of dCK- on Wild-type CCRF-CEM was more than 1050.

Regarding `O=C(Nc1ccn([C@@H]2CO[C@H](COC(=O)OCc3ccc([N+](=O)[O-])cc3)O2)c(=O)n1)OCc1ccc([N+](=O)[O-])cc1` [Compound 181, CARBONIC ACID 4-NITRO-BENZYL ESTER 4-[4-(4-NITRO-BENZYL- OXYCARBONYLAMINO)-2-OX- O-2H-PYRIMIDIN-1-YL]-[1,3]DI- OXOLAN-2-YLMETHYL ESTER], the “Resistance Factor = Ratio of dCK- on Wild-type CCRF-CEM” value is listed as more than 2700. Besides, the IC50 under setting [1] worked out at 0.037 µM. Under setting [2], the IC50 was more than 100 µM. Moreover, the IC50 under setting [3] was found to be 0.49 µM. The IC50 under setting [4] was determined as 0.14 µM. The IC50 under setting [5] turned out to be 0.17 µM.

For the compound `Nc1ccn([C@@H]2CO[C@H](COC(=O)c3ccc(Cl)c(Cl)c3)O2)c(=O)n1` [Compound 187, 3,4-DICHLORO-BENZOIC ACID 4-(4-AMINO-2-OXO-2H-PYRI- MIDIN-1-YL)-[1,3]DI- OXOLAN-2-YL METHYL ESTER], the IC50 under setting [4] amounted to 0.0014 µM; the IC50 (read-out: IC50 (3H-TdR incorporation at 72 hr) CCRF-CEM 24 h, CCRF-CEM T-cell leukemia, 24 hr exposure to drug, wash, another 48 hr) was determined as 0.0016 µM; the IC50 under setting [6] was 0.0011 µM; the IC50 under setting [7] turned out to be 0.0051 µM.

As to `Nc1ccn([C@@H]2CO[C@H](COC(=O)c3ccc(C(F)(F)F)cc3)O2)c(=O)n1` [Compound 189, 4-TRIFLUOROMETHYL-BENZOIC ACID 4-(4-A- MINO-2-OXO-2H-PYRI- MIDIN-1-YL)-[1,3]DI- OXOLAN-2-YL METHYL ESTER], the IC50 was found to be 0.0033 µM under setting [3], 0.0012 µM under setting [4], 0.00068 µM under setting [6] and 0.0037 µM under setting [7].

For `Nc1ccn([C@@H]2CO[C@H](COC(=O)c3ccccc3F)O2)c(=O)n1` [Compound 190, 2-FLUORO-BENZOIC ACID 4-(4-AMINO-2-OXO-2H-PYRI- MIDIN-1-YL)-[1,3]DI- OXOLAN-2-YL METHYL ESTER], the IC50 runs as follows: under setting [2], 9.8 µM; under setting [3], 0.027 µM; under setting [6], 0.0039 µM; under setting [7], 0.016 µM.

On to `CC(C)(C)OC(=O)NCCCCCC(=O)Nc1ccn([C@@H]2CO[C@H](CO)O2)c(=O)n1` [Compound 193, {5-[1-(2-HYDROXYMETHYL-[1,3]DI- OXOLAN-4-YL)-2-OX- O-1,2-DIHYDRO-PYRI- MIDIN-4-YLCARBA- MOYL]-PENTYL}-CARBAMIC ACID TERT-BUTYL ESTER], for which the Resistance Factor = Ratio of dCK- on Wild-type CCRF-CEM is more than 1700.

With `COc1ccc(C(OC)(OC)OC[C@H]2OC[C@@H](n3ccc(N)nc3=O)O2)cc1` [Compound 195, 4-AMINO-1-{2-[DI- METHOXY-(4-METHOXY-PHE- NYL)-METHOXYMETHYL]-[1,3]DI- OXOLAN-4-YL}-1#H!-PYRI- MIDIN-2-ONE], the Resistance Factor = Ratio of dCK- on Wild-type CCRF-CEM was more than 1560.

Take `CCOC(OCC)(OCC)OC[C@H]1OC[C@@H](n2ccc(N)nc2=O)O1` [Compound 199, 4-Amino-1-(2-tri-ethoxymethoxymethyl-[1,3]di-oxolan-4-yl)-1H-pyri-midin-2-one]: the Resistance Factor = Ratio of dCK- on Wild-type CCRF-CEM is more than 10600.

On to `CC(=O)Oc1ccc(COC(=O)Nc2ccn([C@@H]3CO[C@H](COC(=O)OCc4ccc(OC(C)=O)cc4)O3)c(=O)n2)cc1` [Compound 202, Acetic acid 4-(1-{2-[4-(Acetyloxy)benzyloxycarbonyloxymethyl]-[1,3]dioxolan-4-yl}2-oxo-1,2-dihydropyrimidin-4-ylcarbamoyloxymethyl)-phenyl ester], for which the Resistance Factor = Ratio of dCK- on Wild-type CCRF-CEM is more than 1000.

Regarding `Nc1ccn([C@@H]2CO[C@H](COC(=O)c3ccc([N+](=O)[O-])cc3)O2)c(=O)n1` [Compound 204, 4-NITRO-BENZOIC ACID 4-(4-A- MINO-2-OXO-2H-PYRI- MIDIN-1-YL)-[1,3]DI- OXOLAN-2-YL METHYL ESTER], the “Resistance Factor = Ratio of dCK- on Wild-type CCRF-CEM” value is given as 1 600. Under setting [1], the IC50 came out at 0.012 µM. Further, the IC50 under setting [2] came to 19 µM. The IC50 under setting [3] amounted to 0.0086 µM. For the same compound, the IC50 under setting [4] was found to be 0.015 µM. Besides, the IC50 under setting [5] was determined as 0.025 µM.

For `Nc1ccn([C@@H]2CO[C@H](COC(=O)c3ccccc3Cc3ccccc3)O2)c(=O)n1` [Compound 220, BIPHENYL-2-CARBOXYLIC ACID 4-(4-AMINO-2-OXO-2H-PYRI- MIDIN-1-YL)-[1,3]DI- OXOLAN-2-YL METHYL ESTER], the Resistance Factor = Ratio of dCK- on Wild-type CCRF-CEM is more than 28600.

On to `Nc1ccn([C@@H]2CO[C@H](COC(=O)C3(c4ccccc4)CC3)O2)c(=O)n1` [Compound 223, 1-PHENYL-CYCLO- PROPANECARBOXYLIC ACID 4-(4-AMINO-2-OXO-2H-PYRI- MIDIN-1-YL)-[1,3]DI- OXOLAN-2-YL METHYL ESTER], for which the Resistance Factor = Ratio of dCK- on Wild-type CCRF-CEM was more than 1610.

With `CC(C)(C(=O)OC[C@H]1OC[C@@H](n2ccc(N)nc2=O)O1)c1ccccc1[N+](=O)[O-].Cl` [Compound 224, 2-METHYL-2-(2-NITRO-PHE- NYL)-PROPIONIC ACID 4-(4-AMINO-2-OXO-2H-PYRI- MIDIN-1-YL)-[1,3]DI- OXOLAN-2-YLMETHYL ESTER HYDROCHLORIDE SALT], the Resistance Factor = Ratio of dCK- on Wild-type CCRF-CEM is more than 1000. Further, the IC50 under setting [1] was found to be 0.1 µM. Besides, the IC50 under setting [3] was 6.9 µM. Besides, under setting [4], the IC50 worked out at 5.3 µM. Further, the IC50 under setting [5] stood at 21 µM.

In the case of `CCCCC[C@H]1CC[C@H](C(=O)OC[C@H]2OC[C@@H](n3ccc(N)nc3=O)O2)CC1` [Compound 240, 4-PENTYL-CYCLO- HEXANECARBOXYLIC ACID 4-(4-AMINO-2-OXO-2H-PYRI- MIDIN-1-YL)-[1,3]DI- OXOLAN-2-YL METHYL ESTER], the “Resistance Factor = Ratio of dCK- on Wild-type CCRF-CEM” value was “≧25 000”.

As for `CC(CCCCCCc1ccccc1)C(=O)OC[C@H]1OC[C@@H](n2ccc(N)nc2=O)O1` (some centres unmarked) [Compound 245, 2-METHYL-8-PHENYL-OCTANOIC ACID 4-(4-AMINO-2-OXO-2H-PYRI- MIDIN-1-YL)-[1,3]DI- OXOLAN-2-YL METHYL ESTER], the Resistance Factor = Ratio of dCK- on Wild-type CCRF-CEM is more than 6800.

With `CC(C)CCCCC(=O)Nc1ccn([C@@H]2CO[C@H](COC(=O)CCCCC(C)C)O2)c(=O)n1` [Compound 276, 6-METHYL-HEPTANOIC ACID 4-[4-(6-METHYL-HEPTANOYL- AMINO)-2-OXO-2H-PYRI- MIDIN-1-YL]-[1,3]DI- OXOLAN-2-YL METHYL ESTER], the “Factor (Resistance Factor = Ratio of dCK- on Wild-type CCRF-CEM)” value stood at 957. In addition, the IC50 (CCRF-CEM, read-out: IC50 in μM (3H-TdR incorporation at 72 hr) CCRF-CEM 24 h, CCRF-CEM T-cell leukemia, 24 h exposure to drug, wash, another 48 hr) stood at 0.028 µM. For the same compound, the IC50 (MCF7, read-out: IC50 in μM (3H-TdR incorporation at 72 hr) MCF-7 (72 h), MCF-7 human breast carcinoma, 72 h exposure) was found to be 0.0017 µM. Besides, for the setting “NCI-H460, read-out: IC50 in μM (3H-TdR incorporation at 72 hr) H-460 (72 h), H-460 human lung carcinoma, 72 h exposure”, the IC50 was 0.025 µM. Further, for the setting “SF-268, read-out: IC50 in μM (3H-TdR incorporation at 72 hr) SF-268 (72 h), SF-268 human central nervous system tumor, 72 h exposure”, the IC50 stood at 0.018 µM.

Regarding `CC(C)(C)C(=O)OC[C@H]1OC[C@@H](n2ccc(N)nc2=O)O1` [Compound 279, 2,2-DIMETHYL-PROPIONIC ACID 4-(4-AMINO-2-OXO-2H-PYRI- MIDIN-1-YL)-[1,3]DI- OXOLAN-2-YL METHYL ESTER], the “Factor (Resistance Factor = Ratio of dCK- on Wild-type CCRF-CEM)” value is 1854 and >1205.

Regarding `CC(C)[C@H](N)C(=O)Nc1ccn([C@@H]2CO[C@H](CO)O2)c(=O)n1.O=C(O)C(F)(F)F` [Compound 280, 2-Amino-N-[1-(2-hydroxy-methyl-[1,3]dioxo-lan-4-yl)-2-oxo-1,2-di-hydro-pyrimidin-4-yl]-3-meth-yl-butyramide; trifluoroacetic acid salt], the “Factor (Resistance Factor = Ratio of dCK- on Wild-type CCRF-CEM)” value is listed as more than 53.
